The text below walks through data of EPA's ToxValDB 9.5 (doi:10.2903/j.efsa.2014.3913).

One data set deals with Colinus virginianus. To be noted: for LD50: acute, oral, mortality.
For the next data set, the system named is Oryctolagus sp. The following applies: reproduction developmental; organ weight.
The subject of another data set is Poephila guttata. The following applies: acute; oral; unspecified; mortality.
For another data set, the system named is Daphnia magna. To be noted: chronic/long-term; duration: 21 days.
A further data set deals with Bibionidae. The following applies: chronic/long-term; duration: 28 days.
In another data set the test system is Folsomia candida. The following applies: chronic/long-term.
For another data set, the system named is Rattus norvegicus. The following applies: acute; mortality.
In the next data set the test system is Apis mellifera. To be noted: acute, mortality.
The next data set concerns Hypoaspis aculeifer. To be noted: chronic/long-term.
The test system of the next data set is Chironomus tentans. To be noted: chronic/long-term; duration: 28 days.
[1] abbreviates: acute, duration: 96 hours, mortality.
Setting [2] is: chronic/long-term, duration: 28 days.

Structures are written as SMILES. Some results are limits rather than exact numbers.

Broadly, the NOAEL is the highest tested level that showed no adverse finding. For `COC(=O)c1nc(-c2ccc(Cl)c(OC)c2F)cc(N)c1Cl` [Halauxifen-methyl], the LD50 in the data set on Colinus virginianus (diet) is above 1330 mg/kg-day; in the data set on Colinus virginianus it was above 2250 mg/kg; in the data set on Poephila guttata it was above 2250 mg/kg; in the data set on Anas platyrhynchos (short-term, oral, feed, mortality), above 2090 mg/kg-day; in the data set on Rattus norvegicus, above 5000 mg/kg; with Apis mellifera (dermal), above 98.1 µg/piece. The LD50 in the data set on Apis mellifera (oral, unspecified) was above 108 µg/piece. Moreover, the NOAEL with Colinus virginianus (reproduction developmental, reproduction) is 36.9 mg/kg-day; with Oryctolagus sp. it was 5.78 mg/kg-day; in the data set on Anas platyrhynchos (reproductive, reproduction), 160 mg/kg-day. In addition, the NOEC in the data set with Daphnia magna was found to be 0.144 mg/L; with Tagia sp. (chronic/long-term, duration: 8 weeks), 5 mg/kg; with Bibionidae, 1.26 mg/L; in the data set with Folsomia candida, 500 mg/kg; with Cyprinodon variegatus (setting [2]) it was 0.0115 mg/L; with Hypoaspis aculeifer, 12.5 mg/kg. For the same compound, the figures for the NOEC in the data set with Chironomus tentans and in the data set on Neomysis kadiakensis (setting [2]) were 89.3 mg/kg and 0.152 mg/L, respectively. The LC50 with Tagia sp. (acute, duration: 14 days, mortality) was above 500 mg/kg; in the data set with Cyprinodon variegatus (setting [1]) it was above 1.33 µg/mL; in the data set on Neomysis kadiakensis (setting [1]), above 1.3 µg/mL.
